Assay results from patent US20230174486A1, “NON-LYSOSOMAL GLUCOSYLCERAMIDASE INHIBITORS AND USES THEREOF” (ALECTOS THERAPEUTICS lNC., priority 2020, published 2023).

Assays:
[1] = target: T1, human GBA2 (Homo sapiens, UniProt Q9HCG7); test: Inhibition of GBA2 in cell lysate (4-methylumbelliferone-β-D glucopyranoside substrate); format: biochemical; conditions: homogenate of HEK293T cells stably overexpressing human GBA2, pH 5.5, 37° C., GCase inhibitor present
T1 construct: cellular homogenate
T1 sequence (Q9HCG7 1-927): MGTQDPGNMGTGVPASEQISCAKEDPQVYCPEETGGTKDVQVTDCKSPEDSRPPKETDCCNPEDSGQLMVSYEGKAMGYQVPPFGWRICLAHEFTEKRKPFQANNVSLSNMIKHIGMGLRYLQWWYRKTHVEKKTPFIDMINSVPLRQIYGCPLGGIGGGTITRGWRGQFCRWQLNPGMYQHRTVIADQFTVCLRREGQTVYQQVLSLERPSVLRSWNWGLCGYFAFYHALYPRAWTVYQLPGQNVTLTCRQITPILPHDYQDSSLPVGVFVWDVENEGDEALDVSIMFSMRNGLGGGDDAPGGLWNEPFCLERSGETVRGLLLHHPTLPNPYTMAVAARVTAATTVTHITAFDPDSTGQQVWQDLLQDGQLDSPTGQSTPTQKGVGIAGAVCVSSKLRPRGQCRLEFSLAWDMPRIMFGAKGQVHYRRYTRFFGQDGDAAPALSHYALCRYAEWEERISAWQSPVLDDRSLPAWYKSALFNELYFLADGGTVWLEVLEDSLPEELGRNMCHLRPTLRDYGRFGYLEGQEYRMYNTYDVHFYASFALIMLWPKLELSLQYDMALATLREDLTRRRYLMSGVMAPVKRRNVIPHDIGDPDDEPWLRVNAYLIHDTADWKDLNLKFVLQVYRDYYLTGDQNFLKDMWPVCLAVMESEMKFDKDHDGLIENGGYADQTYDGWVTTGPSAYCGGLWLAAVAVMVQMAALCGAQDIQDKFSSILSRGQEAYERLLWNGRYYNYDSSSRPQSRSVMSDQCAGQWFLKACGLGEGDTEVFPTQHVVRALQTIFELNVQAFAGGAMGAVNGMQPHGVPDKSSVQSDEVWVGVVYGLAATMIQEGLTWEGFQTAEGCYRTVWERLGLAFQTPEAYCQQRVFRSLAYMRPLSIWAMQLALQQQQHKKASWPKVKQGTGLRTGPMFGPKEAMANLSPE
Procedure: Stable GBA2-expressing HEK293T cells were generated as follows. The PCR-amplified human GBA2 (GBA2 nucleotide accession number BC011363) using the following primers: Sense 5’---CGCAAATGGGCGGTAGGCGTG---3’ and antisense 5’---TAGTCAGCCATGGGGCGGAGA ---3’) was cloned into pLenti-GIII-CMV by ABM Inc. The correctness of the construct was verified by sequencing. Lentivirus particles containing GBA2 in the pLenti-GIII-CMV plasmid were prepared using a third Generation Virus Packaging Mix (ABM cat# LV053-G074) in HEK293T cells and supplied as a virus particle suspension. The virus suspension was used for infection of HEK293T cells. Cell populations stably expressing human GBA2 were selected using puromycin for several weeks as determined by activity assays and western blot.
Various concentrations of test compounds were prepared in DMSO and then diluted into buffer consisting of 100 mM citric acid, 200 mM disodium phosphate with 1% v/v C10E6, pH 5.5. Cellular homogenates (0.25 mg/mL) of the stable HEK293T-overexpressing GBA2 cell line were preincubated for 10 min on ice with an inhibitor of GCase (20 µM (6R,7R,8S)-8-ethyl-4-azaspiro[2.5]octane-6,7-diol). The reaction solution consisted of 20 µL of 750 µM 4-methylumbelliferone-β-D glucopyranoside in 5% DMSO in the same buffer, 20 µL of GBA2-cellular homogenate pre-treated with (6R,7R,8S)-8-ethyl-4-azaspiro[2.5]octane-6,7-diol and 20 µL of various concentrations of test compound in 10% DMSO in the same buffer. The final concentrations in the reaction were 0.083 mg/mL GBA2-cellular homogenate, 250 µM 4-methylumbelliferone-β-D glucopyranoside, and various concentrations of inhibitor. The inhibitor and GBA2-cellular homogenate were preincubated together for 5 min at 37° C. The reaction was initiated by addition of substrate and allowed to proceed for 20 min at 37° C. to assess GBA2 activity. Reactions were stopped by the addition of an equal volume (60 µL) of 0.5 M NaOH, 0.3 M glycine, pH 10.5. Fluorescence was measured on a Biotek Synergy H4 plate reader at wavelengths of 365 nm for excitation and 450 nm for emission. Incubations without added enzyme or added inhibitors were used to define no enzyme activity and maximal enzyme activity, respectively. IC50 values were determined by fitting the data to a log[inhibitor concentration] versus response curve using GraphPad Prism. IC50 values were calculated as the concentration of inhibitor required to inhibit GBA2 activity by 50%.

[2] = target: T2, human non-lysosomal glucosylceramidase (GBA2) (Homo sapiens, UniProt Q9HCG7); test: Binding specificity for GBA2 over other molecules (ratio of Ki or IC50 values); format: biochemical; conditions: qualitative statement, no values or other enzyme given
T2 sequence (Q9HCG7 1-927): T1 sequence (Q9HCG7 1-927)
Description: In some embodiments, one or more of the compounds according to the invention may specifically bind a GBA2. In alternative embodiments, one or more of the compounds according to the invention may specifically bind the active site of a GBA2. […] In alternative embodiments, one or more of the compounds according to the invention may specifically bind the human non-lysosomal glucosylceramidase (GBA2) over the human lysosomal glucosylceramidase (GCase) and/or the human cytosolic glucosylceramidase (GBA3). In alternative embodiments, one or more of the compounds according to the invention may specifically bind the human non-lysosomal glucosylceramidase (GBA2) over the human glucosylceramide synthase (GCS). In alternative embodiments, one or more of the compounds according to the invention may specifically bind the human non-lysosomal glucosylceramidase (GBA2) over an intestinal alpha-glucosidase, where the intestinal alpha-glucosidase may be a sucrase-isomaltase or a maltase-glucoamylase.

Structure (SMILES): C[C@@H](CN1C[C@H](O)[C@@H](O)[C@H](O)[C@H]1CO)c1ccccc1 (single isomer, unassigned) [Example 7]
- GBA2 IC50 [1]: ∗∗∗

Structure (SMILES): C[C@H](CN1C[C@H](O)[C@@H](O)[C@H](O)[C@H]1CO)c1ccccc1 (single isomer, unassigned) [Example 8]
- GBA2 IC50 [1]: ∗∗∗
- binding specificity, Ki(other molecule)/Ki(GBA2) or IC50(other molecule)/IC50(GBA2) [2]: enhanced binding specificity

Structure (SMILES): OC[C@@H]1[C@@H](O)[C@H](O)[C@@H](O)CN1CCc1ccccc1F [Example 1, (2R,3R,4R,5S)-1-(2-fluorophenethyl)-2-(hydroxymethyl)piperidine-3,4,5-triol]
- GBA2 IC50 [1]: ∗∗∗

Structure (SMILES): OC[C@@H]1[C@@H](O)[C@H](O)[C@@H](O)CN1CCc1cccc(F)c1 [Example 2, (2R,3R,4R,5S)-1-(3-fluorophenethyl)-2-(hydroxymethyl)piperidine-3,4,5-triol]
- GBA2 IC50 [1]: ∗∗∗

Structure (SMILES): OC[C@@H]1[C@@H](O)[C@H](O)[C@@H](O)CN1CCc1ccc(F)cc1 [Example 3, (2R,3R,4R,5S)-1-(4-fluorophenethyl)-2-(hydroxymethyl)piperidine-3,4,5-triol]
- GBA2 IC50 [1]: ∗∗∗

Structure (SMILES): OC[C@@H]1[C@@H](O)[C@H](O)[C@@H](O)CN1CCc1c(F)cccc1F [Example 4, (2R,3R,4R,5S)-1-(2,6-difluorophenethyl)-2-(hydroxymethyl)piperidine-3,4,5-triol]
- GBA2 IC50 [1]: ∗∗∗
- binding specificity, Ki(other molecule)/Ki(GBA2) or IC50(other molecule)/IC50(GBA2) [2]: enhanced binding specificity

Structure (SMILES): OC[C@@H]1[C@@H](O)[C@H](O)[C@@H](O)CN1CCc1cccc(C(F)(F)F)c1 [Example 5, (2R,3R,4R,5S)-2-(hydroxymethyl)-1-(3-(trifluoromethyl)phenethyl)piperidine-3,4,5-triol]
- GBA2 IC50 [1]: ∗∗∗

Structure (SMILES): OC[C@@H]1[C@@H](O)[C@H](O)[C@@H](O)CN1CCc1ccc(C(F)(F)F)cc1 [Example 6, (2R,3R,4R,5S)-2-(hydroxymethyl)-1-(4-(trifluoromethyl)phenethyl)piperidine-3,4,5-triol]
- GBA2 IC50 [1]: ∗∗∗

Structure (SMILES): OC[C@@H]1[C@@H](O)[C@H](O)[C@@H](O)CN1CCc1ccccn1 [Example 9, (2R,3R,4R,5S)-2-(hydroxymethyl)-1-(2-(pyridin-2-yl)ethyl)piperidine-3,4,5-triol]
- GBA2 IC50 [1]: ∗∗

Structure (SMILES): OC[C@@H]1[C@@H](O)[C@H](O)[C@@H](O)CN1CCc1cccs1 [Example 10, (2R,3R,4R,5S)-2-(hydroxymethyl)-1-(2-(thiophen-2-yl)ethyl)piperidine-3,4,5-triol]
- GBA2 IC50 [1]: ∗∗∗

Structure (SMILES): OC[C@@H]1[C@@H](O)[C@H](O)[C@@H](O)CN1CCc1ccsc1 [Example 11, (2R,3R,4R,5S)-2-(hydroxymethyl)-1-(2-(thiophen-3-yl)ethyl)piperidine-3,4,5-triol]
- GBA2 IC50 [1]: ∗∗∗

Structure (SMILES): OC[C@H]1[C@@H](O)[C@H](O)[C@@H](O)CN1CC1CCCCC1 [Example 12, (2S,3R,4R,5S)-1-(cyclohexylmethyl)-2-(hydroxymethyl)piperidine-3,4,5-triol]
- GBA2 IC50 [1]: ∗∗∗
- binding specificity, Ki(other molecule)/Ki(GBA2) or IC50(other molecule)/IC50(GBA2) [2]: enhanced binding specificity

Structure (SMILES): OC[C@H]1[C@@H](O)[C@H](O)[C@@H](O)CN1C[C@H]1CC[C@H](C(F)(F)F)CC1 [Example 13, (2S,3R,4R,5S)-2-(hydroxymethyl)-1-(((1r,4R)-4-(trifluoromethyl)cyclohexyl)methyl)piperidine-3,4,5-triol]
- GBA2 IC50 [1]: ∗∗∗
- binding specificity, Ki(other molecule)/Ki(GBA2) or IC50(other molecule)/IC50(GBA2) [2]: enhanced binding specificity

Structure (SMILES): CC(C)(F)[C@H]1CC[C@@H](CN2C[C@H](O)[C@@H](O)[C@H](O)[C@@H]2CO)CC1 [Example 14, (2S,3R,4R,5S)-1-(((1s,4S)-4-(2-fluoropropan-2-yl)cyclohexyl)methyl)-2-(hydroxymethyl)piperidine-3,4,5-triol]
- GBA2 IC50 [1]: ∗∗∗
- binding specificity, Ki(other molecule)/Ki(GBA2) or IC50(other molecule)/IC50(GBA2) [2]: enhanced binding specificity

Structure (SMILES): OC[C@H]1[C@@H](O)[C@H](O)[C@@H](O)CN1CC1Cc2ccccc2C1 [Example 15, (2S,3R,4R,5S)-1-((2,3-dihydro-1H-inden-2-yl)methyl)-2-(hydroxymethyl)piperidine-3,4,5-triol]
- GBA2 IC50 [1]: ∗∗∗
- binding specificity, Ki(other molecule)/Ki(GBA2) or IC50(other molecule)/IC50(GBA2) [2]: enhanced binding specificity

Structure (SMILES): OC[C@H]1[C@@H](O)[C@H](O)[C@@H](O)CN1CCC1CCCCC1 [Example 16, (2S,3R,4R,5S)-1-(2-cyclohexylethyl)-2-(hydroxymethyl)piperidine-3,4,5-triol]
- GBA2 IC50 [1]: ∗∗∗
- binding specificity, Ki(other molecule)/Ki(GBA2) or IC50(other molecule)/IC50(GBA2) [2]: enhanced binding specificity

Structure (SMILES): OC[C@H]1[C@@H](O)[C@H](O)[C@@H](O)CN1CCCC1CCCCC1 [Example 17, (2S,3R,4R,5S)-1-(3-cyclohexylpropyl)-2-(hydroxymethyl)piperidine-3,4,5-triol]
- GBA2 IC50 [1]: ∗∗∗

Structure (SMILES): OC[C@H]1[C@@H](O)[C@H](O)[C@@H](O)CN1CCc1ccccc1F [Example 18, (2S,3R,4R,5S)-1-(2-fluorophenethyl)-2-(hydroxymethyl)piperidine-3,4,5-triol]
- GBA2 IC50 [1]: ∗∗∗

Structure (SMILES): OC[C@H]1[C@@H](O)[C@H](O)[C@@H](O)CN1CCc1cccc(Cl)c1F [Example 19, (2S,3R,4R,5S)-1-(3-chloro-2-fluorophenethyl)-2-(hydroxymethyl)piperidine-3,4,5-triol]
- GBA2 IC50 [1]: ∗∗∗

Structure (SMILES): OC[C@H]1[C@@H](O)[C@H](O)[C@@H](O)CN1CCc1ccc(-c2ccccc2)cc1 [Example 20, (2S,3R,4R,5S)-1-(2-([1,1′-biphenyl]-4-yl)ethyl)-2-(hydroxymethyl)piperidine-3,4,5-triol]
- GBA2 IC50 [1]: ∗∗∗
- binding specificity, Ki(other molecule)/Ki(GBA2) or IC50(other molecule)/IC50(GBA2) [2]: enhanced binding specificity

Structure (SMILES): OC[C@H]1[C@@H](O)[C@H](O)[C@@H](O)CN1C[C@H]1CCN(c2nc(C(F)(F)F)cs2)C1 [Example 26, (2S,3R,4R,5S)-2-(hydroxymethyl)-1—(((R)—1-(4-(trifluoromethyl)thiazol-2-yl)pyrrolidin-3-yl)methyl)piperidine-3,4,5-triol]
- GBA2 IC50 [1]: ∗∗∗

Structure (SMILES): OC[C@H]1[C@@H](O)[C@H](O)[C@@H](O)CN1C[C@H]1CCCN(c2nc(C(F)(F)F)cs2)C1 [Example 30, (2S,3R,4R,5S)-2-(hydroxymethyl)-1—(((R)—1-(4-(trifluoromethyl)thiazol-2-yl)piperidin-3-yl)methyl)piperidine-3,4,5-triol]
- GBA2 IC50 [1]: ∗∗∗
